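Grown in 96-well plates, cells were treated for 48 hours with each compound at five concentrations. Insufficient inhibition: endpoint recorded as highest concentration tested. GI50 is the concentration that inhibits growth by half. TGI: total growth inhibition.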
What was measured:
Assay in all cases: NCI-60 cell line screen, 48 h
[1] = system: HT29 colon
[2] = system: EKVX NSCLC
[3] = system: LOX IMVI melanoma
[4] = system: COLO 205 colon
[5] = system: SK-MEL-28 melanoma
[6] = system: SK-MEL-5 melanoma
[7] = system: HCT-116 colon
[8] = system: OVCAR-5 ovarian
[9] = system: UACC-62 melanoma
[10] = system: A498 renal

## O=C(NC(=O)c1cn(CCNCCO)c(=O)[nH]c1=O)OCc1ccccc1
[1]
  TGI: > 100 µM
[2]
  TGI: > 100 µM
[3]
  TGI: > 100 µM
[4]
  TGI: > 100 µM
[5]
  TGI: > 100 µM
[6]
  TGI: > 100 µM
[7]
  TGI: > 100 µM
[8]
  TGI: > 100 µM
[9]
  TGI: > 100 µM

## C1CSCCSCCS1
[1]
  TGI: > 100 µM
[2]
  TGI: > 100 µM
[3]
  TGI: > 100 µM
[4]
  TGI: > 100 µM
[5]
  TGI: > 100 µM
[6]
  TGI: > 100 µM
[7]
  TGI: > 100 µM
[8]
  TGI: > 100 µM
[9]
  TGI: > 100 µM

## Cc1ccc(-c2nc3ccc([N+](=O)[O-])cc3[nH]2)cc1
[1]
  TGI: > 100 µM
[2]
  TGI: > 100 µM
[3]
  TGI: > 100 µM
[4]
  TGI: > 100 µM
[5]
  TGI: > 100 µM
[6]
  TGI: > 100 µM
[7]
  TGI: > 100 µM
[9]
  TGI: > 100 µM

## C=CCCCCCCCCCCC1(O)C=CC2=[N+](CCCCCN=C(N)N)CCCN21 (stereo not given)
[1]
  GI50: 3.87 µM
  TGI: 22.7 µM
[2]
  GI50: 10.8 µM
  TGI: 26.7 µM
[3]
  GI50: 6.3 µM
  TGI: 26 µM
[4]
  GI50: 2.78 µM
  TGI: 13.9 µM
[5]
  GI50: 13.6 µM
  TGI: 31.8 µM
[6]
  GI50: 9.93 µM
  TGI: 25.1 µM
[7]
  GI50: 12.4 µM
  TGI: > 45.2 µM
[8]
  GI50: 6.25 µM
  TGI: 20.8 µM
[9]
  GI50: 13.3 µM
  TGI: 28.9 µM

## CC1=C2CCCC2=C/C(=N/Nc2ccc([N+](=O)[O-])cc2[N+](=O)[O-])CC1
[1]
  TGI: > 100 µM
[2]
  TGI: > 100 µM
[3]
  TGI: > 100 µM
[4]
  TGI: > 100 µM
[5]
  TGI: > 100 µM
[6]
  TGI: > 100 µM
[7]
  TGI: > 100 µM
[8]
  TGI: > 100 µM
[9]
  TGI: > 100 µM

## COc1ccc(/C(=N\NC(=O)C(N)=O)C(c2ccc(OC)cc2)C2(O)C(=O)Nc3c(Cl)cccc32)cc1 (stereo not given)
[1]
  TGI: > 100 µM
[2]
  TGI: > 100 µM
[3]
  TGI: > 100 µM
[4]
  TGI: > 100 µM
[5]
  TGI: > 100 µM
[6]
  TGI: > 100 µM
[7]
  TGI: > 100 µM
[8]
  TGI: > 100 µM
[9]
  TGI: > 100 µM

## O=C(CSc1nnc(-c2ccc(N=Cc3ccc(Cl)cc3)cc2)o1)Nc1ccc(Cl)cc1
[1]
  TGI: > 100 µM
[2]
  TGI: > 100 µM
[3]
  TGI: > 100 µM
[4]
  TGI: > 100 µM
[5]
  TGI: > 100 µM
[6]
  TGI: > 100 µM
[7]
  TGI: > 100 µM
[9]
  TGI: > 100 µM

## O=c1[nH]c(=O)n(C2CC(O)C(CO)O2)cc1CO (stereo not given)
[1]
  GI50: > 100 µM
  TGI: > 100 µM
[3]
  GI50: > 100 µM
  TGI: > 100 µM
[4]
  GI50: > 100 µM
  TGI: > 100 µM
[5]
  GI50: > 100 µM
  TGI: > 100 µM
[6]
  GI50: > 100 µM
  TGI: > 100 µM
[7]
  GI50: > 100 µM
  TGI: > 100 µM
[8]
  GI50: > 100 µM
  TGI: > 100 µM
[9]
  GI50: > 100 µM
  TGI: > 100 µM
[10]
  GI50: > 100 µM
  TGI: > 100 µM

## COc1ccc2oc(-c3cccnc3)cc(=O)c2c1
[1]
  TGI: > 100 µM
[3]
  TGI: > 100 µM
[4]
  TGI: > 100 µM
[5]
  TGI: > 100 µM
[7]
  TGI: > 100 µM
[9]
  TGI: > 100 µM
[10]
  TGI: > 100 µM

## O=C1[C@@H]2C3c4ccccc4C([C@@H]2C(=O)N1c1ccccc1)S3(=O)=O
[1]
  TGI: > 100 µM
[2]
  TGI: > 100 µM
[3]
  TGI: > 100 µM
[4]
  TGI: > 100 µM
[6]
  TGI: > 100 µM
[7]
  TGI: > 100 µM
[8]
  TGI: > 100 µM
[9]
  TGI: > 100 µM

## Cc1ccc(Cn2c(C)nc3c2C(=O)c2ccccc2C3=O)cc1
[1]
  TGI: > 100 µM
[2]
  TGI: > 100 µM
[3]
  TGI: 6.18 µM
[4]
  TGI: > 100 µM
[5]
  TGI: > 100 µM
[6]
  TGI: 19.5 µM
[7]
  TGI: 16.3 µM
[9]
  TGI: 16.1 µM

## O=C(Nc1cc(Cl)ccc1Cl)c1cc2cccc(Cl)c2oc1=O
[1]
  TGI: > 100 µM
[2]
  TGI: > 100 µM
[3]
  TGI: > 100 µM
[4]
  TGI: > 100 µM
[5]
  TGI: > 100 µM
[6]
  TGI: > 100 µM
[7]
  TGI: > 100 µM
[9]
  TGI: > 100 µM

## O=C(NCCCCN=c1cccccc1NCCCCNC(=O)OCc1ccccc1)OCc1ccccc1
[1]
  TGI: 18.7 µM
[2]
  TGI: 81.4 µM
[3]
  TGI: 30 µM
[5]
  TGI: 39.6 µM
[6]
  TGI: 33.1 µM
[7]
  TGI: 25 µM
[8]
  TGI: 41.9 µM
[9]
  TGI: 37.5 µM

## C[C@H]1NC(=O)C2CCCCN2C(=O)CN(C)C(=O)CNC(=O)C2CCCCN2C(=O)[C@@H](NC(=O)c2nc3ccccc3cc2O)[C@@H](C)NC(=O)C2CCCCN2C(=O)CN(C)C(=O)CNC(=O)[C@@H]2CCCCN2C(=O)C1NC(=O)c1nc2ccccc2cc1O (stereo not given in full)
[1]
  TGI: > 100 µM
[2]
  TGI: 23.2 µM
[3]
  TGI: > 100 µM
[4]
  TGI: 0.641 µM
[5]
  TGI: 0.465 µM
[8]
  TGI: 7.55 µM
[9]
  TGI: 0.105 µM

## O=C(O)[C@H](NS(=O)(=O)c1ccc2ccccc2c1)c1ccccc1
[1]
  TGI: > 100 µM
[3]
  TGI: > 100 µM
[4]
  TGI: > 100 µM
[5]
  TGI: > 100 µM
[8]
  TGI: > 100 µM
[9]
  TGI: > 100 µM
[10]
  TGI: > 100 µM

## Nc1c(C(=O)Nc2cccc(Br)c2)sc2nc3c(cc12)C(=O)CCC3
[1]
  GI50: 0.37 µM
  TGI: > 100 µM
[4]
  GI50: 0.401 µM
[5]
  TGI: > 100 µM
[6]
  GI50: 0.4 µM
  TGI: > 100 µM
[7]
  GI50: 0.534 µM
  TGI: > 100 µM
[8]
  GI50: 6.82 µM
  TGI: > 100 µM
[9]
  GI50: 0.516 µM
  TGI: > 100 µM
[10]
  GI50: 0.189 µM
  TGI: 8.33 µM

Reference: PubChem BioAssay (NCI)
